# Data taken from ChEMBL document CHEMBL4011591, “Discovery and pharmacological evaluation of a novel series of adamantyl cyanoguanidines as P2X7 receptor antagonists” (Eur J Med Chem, 2017).
# Active and inactive are the calls of the source. The rule behind the calls is not given here.
# Assays:
# [1] = molecular target: T1, P2X purinoceptor 7 (Homo sapiens, UniProt Q99572); experiment: Antagonist activity at P2X7 receptor in human THP1 cells assessed as inhibition of BzATP-induced YO-PRO-1 Iodide uptake measured every 30 secs for 1 hr by fluorescence assay; format: cell-based
# T1 sequence (Q99572 whole entry): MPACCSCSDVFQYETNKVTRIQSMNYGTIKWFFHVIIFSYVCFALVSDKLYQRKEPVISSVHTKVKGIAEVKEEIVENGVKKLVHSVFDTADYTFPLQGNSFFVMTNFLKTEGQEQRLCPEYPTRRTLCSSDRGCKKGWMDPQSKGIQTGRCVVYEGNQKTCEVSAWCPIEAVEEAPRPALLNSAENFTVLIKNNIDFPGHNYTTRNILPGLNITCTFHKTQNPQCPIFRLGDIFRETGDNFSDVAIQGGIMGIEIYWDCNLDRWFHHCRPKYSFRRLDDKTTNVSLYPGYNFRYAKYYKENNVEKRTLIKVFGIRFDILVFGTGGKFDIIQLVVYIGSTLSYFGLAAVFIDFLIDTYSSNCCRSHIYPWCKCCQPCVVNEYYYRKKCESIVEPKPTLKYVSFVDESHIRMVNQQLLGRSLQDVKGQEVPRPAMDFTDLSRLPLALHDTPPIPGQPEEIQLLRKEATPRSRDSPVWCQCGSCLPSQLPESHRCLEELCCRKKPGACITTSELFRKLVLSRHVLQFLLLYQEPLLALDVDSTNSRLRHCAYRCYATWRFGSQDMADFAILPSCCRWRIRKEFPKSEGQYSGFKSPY
# [2] = Half life in CD-1 mouse at 3 mg/kg, po administered as single dose via gavage by HPLC-MS/MS; format: ADME, organism-based; details: in vivo
# [3] = molecular target: T1, P2X purinoceptor 7; experiment: Antagonist activity at P2X7 receptor in LPS-stimulated human THP1 cells assessed as inhibition of LPS/BzATP-induced IL-1beta release preincubated for 30 mins followed by BzATP addition measured after 30 mins by ELISA
# [4] = molecular target: T2, P2X purinoceptor 7 (Homo sapiens) (UniProt Q99572); experiment: Ratio of IC50 for P2X7 receptor in human THP1 cells assessed as inhibition of BzATP-induced YO-PRO-1 Iodide uptake to IC50 for P2X7 receptor in LPS-stimulated human THP1 cells assessed as inhibition of LPS/BzATP-induced IL-1beta release; format: cell-based
# T2 sequence (whole entry): T1 sequence (Q99572 whole entry)
# [5] = Plasma concentration in Balb-C mouse at 2 mg/kg, iv administered as bolus dose measured after 76 mins by LC-MS analysis; format: ADME, organism-based
# [6] = Plasma concentration in Balb-C mouse at 2 mg/kg, iv administered as bolus dose measured after 2.5 mins by LC-MS analysis; format: ADME, organism-based
# [7] = tested on: Mus musculus; experiment: Toxicity in Balb-C mouse assessed as behavior changes at 0.1 to 1 mg/kg, ip measured after 48 hrs; format: organism-based; details: in vivo
# [8] = tested on: Mus musculus; experiment: Toxicity in Balb-C mouse assessed as psychological changes at 0.1 to 1 mg/kg, ip measured after 48 hrs; format: organism-based; details: in vivo
# [9] = Plasma concentration in Balb-C mouse at 2 mg/kg, iv administered as bolus dose measured after 6 mins by LC-MS analysis; format: ADME, organism-based
# [10] = Plasma concentration in Balb-C mouse at 2 mg/kg, iv administered as bolus dose measured after 58 mins by LC-MS analysis; format: ADME, organism-based
# [11] = Plasma concentration in Balb-C mouse at 10 mg/kg, po measured after 30 mins by LC-MS analysis; format: ADME, organism-based
# [12] = Plasma concentration in Balb-C mouse at 2 mg/kg, iv administered as bolus dose measured after 23 mins by LC-MS analysis; format: ADME, organism-based
# [13] = Plasma concentration in Balb-C mouse at 2 mg/kg, iv administered as bolus dose measured after 39 mins by LC-MS analysis; format: ADME, organism-based
# [14] = tested on: Mus musculus; experiment: Toxicity in Balb-C mouse assessed as abnormal behavior at 0.1 to 1 mg/kg, ip measured after 30 mins; format: organism-based; details: in vivo, 0.5 h
# [15] = MRT (0 to infinity) in Balb-C mouse at 2 mg/kg, iv administered as bolus dose by LC-MS method; format: ADME, organism-based; details: in vivo
# [16] = Plasma concentration in Balb-C mouse at 2 mg/kg, iv administered as bolus dose measured after 15 mins by LC-MS analysis; format: ADME, organism-based
# [17] = Plasma concentration in Balb-C mouse at 2 mg/kg, iv administered as bolus dose measured after 63 mins by LC-MS analysis; format: ADME, organism-based
# [18] = Plasma concentration in Balb-C mouse at 2 mg/kg, iv administered as bolus dose measured after 10 mins by LC-MS analysis; format: ADME, organism-based
# [19] = Terminal elimination rate constant in Balb-C mouse at 2 mg/kg, iv administered as bolus dose by LC-MS method; format: ADME, organism-based; details: in vivo, read-out: LZ (converted)
# [20] = Tmax in Balb-C mouse at 2 mg/kg, iv administered as bolus dose by LC-MS method; format: ADME, organism-based; details: in vivo
# [21] = Plasma concentration in Balb-C mouse at 10 mg/kg, po measured after 21 mins by LC-MS analysis; format: ADME, organism-based
# [22] = Clearance in Balb-C mouse at 2 mg/kg, iv administered as bolus dose by LC-MS method; format: ADME, organism-based; details: in vivo
# [23] = Tmax in Balb-C mouse at 1 mg/kg, iv administered as bolus dose by LC-MS method; format: ADME, organism-based; details: in vivo
# [24] = AUC (0 to t) in Balb-C mouse at 2 mg/kg, iv administered as bolus dose by LC-MS method; format: ADME, organism-based; details: in vivo
# [25] = Plasma concentration in Balb-C mouse at 2 mg/kg, iv administered as bolus dose measured after 10.1 mins by LC-MS analysis; format: ADME, organism-based
# [26] = Plasma concentration in Balb-C mouse at 2 mg/kg, iv administered as bolus dose measured after 5.8 mins by LC-MS analysis; format: ADME, organism-based
# [27] = Plasma concentration in Balb-C mouse at 10 mg/kg, po measured after 33 mins by LC-MS analysis; format: ADME, organism-based
# [28] = Cmax in Balb-C mouse at 2 mg/kg, iv administered as bolus dose by LC-MS method; format: ADME, organism-based; set-up: dose 2 mg/kg, route intravenous; details: in vivo
# [29] = Solubility of the compound in 8% ethanol/8% polysorbate80/84% saline formulation; format: physicochemical; details: buffer
# [30] = AUC (0 to infinity) in Balb-C mouse at 2 mg/kg, iv administered as bolus dose by LC-MS method; format: ADME, organism-based; set-up: dose 2 mg/kg, time infinity, route intravenous; details: in vivo
# [31] = Plasma concentration in Balb-C mouse at 2 mg/kg, iv administered as bolus dose measured after 37 mins by LC-MS analysis; format: ADME, organism-based
# [32] = Cmax in Balb-C mouse at 1 mg/kg, iv administered as bolus dose by LC-MS method; format: ADME, organism-based; set-up: dose 1 mg/kg, route intravenous; details: in vivo
# [33] = Plasma concentration in Balb-C mouse at 2 mg/kg, iv administered as bolus dose measured after 2.2 mins by LC-MS analysis; format: ADME, organism-based
# [34] = tested on: Mus musculus; experiment: Anti-depressant like activity in wild-type Balb-C mouse assessed as reduction in duration of immobility at 1 mg/kg, ip administered 15 to 30 mins prior to the testing measured on day 3 post dose by force swim test; format: functional, organism-based
# [35] = Plasma concentration in Balb-C mouse at 10 mg/kg, po measured after 62 mins by LC-MS analysis; format: ADME, organism-based
# [36] = Half life in Balb-C mouse at 2 mg/kg, iv administered as bolus dose by LC-MS method; format: ADME, organism-based; details: in vivo
# [37] = Volume of distribution in Balb-C mouse at 2 mg/kg, iv administered as bolus dose by LC-MS method; format: ADME, organism-based; details: in vivo
# [38] = tested on: Rattus norvegicus; experiment: Intrinsic clearance in iv dosed rat; format: ADME, organism-based; details: in vivo
# [39] = Half life in iv dosed rat; format: ADME, organism-based; details: in vivo
smiles,measurement,setting,value
COc1cccc(N/C(=N/C#N)NCC23CC4CC(CC(C4)C2)C3)c1,IC50,[1],58 nM
c1cnc2cc3c(cc2n1)[C@@H]1CNC[C@H]3C1 [VARENICLINE],half-life,[2],84 min
N#C/N=C(/NCc1ccncc1)NCC12CC3CC(CC(C3)C1)C2,IC50,[1],447 nM
same,IC50,[3],389 nM
same,Ratio IC50,[4],1.2
COc1cccc(CN/C(=N/C#N)NCC23CC4CC(CC(C4)C2)C3)c1,IC50,[1],851 nM
COc1ccc(CN/C(=N/C#N)NCC23CC4CC(CC(C4)C2)C3)cc1,IC50,[1],> 10000 nM
N#C/N=C(\NCC12CC3CC(CC(C3)C1)C2)Nc1ccccn1,IC50,[1],> 10000 nM
COc1ccccc1CN/C(=N/C#N)NCC12CC3CC(CC(C3)C1)C2,IC50,[1],562 nM
N#C/N=C(/NCc1cccnc1)NCC12CC3CC(CC(C3)C1)C2,concentration at 76 min,[5],12 ng/mL
same,concentration at 2.5 min,[6],1180 ng/mL
same,Activity,[7],Non-Toxic
same,Activity,[8],Non-Toxic
same,concentration at 0.1 h,[9],766 ng/mL
same,concentration at 58 min,[10],52 ng/mL
same,concentration at 0.5 h,[11],39 ng/mL
same,IC50,[1],69 nM
same,concentration at 23 min,[12],220 ng/mL
same,concentration at 0.65 h,[13],160 ng/mL
same,Activity,[14],Non-Toxic
same,MRT inf,[15],18.6 min
same,concentration at 0.25 h,[16],461 ng/mL
same,concentration at 1.05 h,[17],31 ng/mL
same,concentration at 10 min,[18],365 ng/mL
same,k el,[19],0.000886 s⁻¹
same,Tmax,[20],2.5 min
same,concentration at 0.35 h,[21],44 ng/mL
same,clearance,[22],117 mL/min/kg
same,Tmax,[23],20 to 30 min
same,AUC(0-t),[24],0.87 µM·h
same,concentration at 0.168333 h,[25],332 ng/mL
same,concentration at 348 s,[26],523 ng/mL
same,concentration at 0.55 h,[27],23 ng/mL
same,Cmax,[28],3650 nM
same,solubility,[29],Insoluble
same,AUC(0-inf),[30],0.88 µM·h
same,concentration at 37 min,[31],123 ng/mL
same,Cmax,[32],912 nM
same,concentration at 132 s,[33],687 ng/mL
same,Activity,[34],Active
same,concentration at 62 min,[35],5.8 ng/mL
same,IC50,[3],40 nM
same,half-life,[36],13.2 min
same,Ratio IC50,[4],1.7
same,Vd,[37],2.2 L/kg
COc1ccc(N/C(=N/C#N)NCC23CC4CC(CC(C4)C2)C3)cc1,IC50,[1],562 nM
N#C/N=C(\NCCC12CC3CC(CC(C3)C1)C2)NCc1ccccc1,IC50,[1],3020 nM
N#C/N=C(\NCC12CC3CC(CC(C3)C1)C2)Nc1cccnc1,IC50,[1],214 nM
N#C/N=C(\NCCC12CC3CC(CC(C3)C1)C2)Nc1ccccc1,IC50,[1],> 10000 nM
COc1ccccc1N/C(=N/C#N)NCC12CC3CC(CC(C3)C1)C2,IC50,[1],51 nM
O=C(CC12CC3CC(CC(C3)C1)C2)Nc1ccc2[nH]ncc2c1,CL,[38],47 mL/min/kg
same,half-life,[39],60 min
